Test [1] deals with T1, Recombinant ROCK2 (amino acids 5-554) (Homo sapiens, UniProt O75116).
T1 construct: ROCK2 (amino acids 5-554)
The test can be described thus: ROCK inhibition assay, LANCE Ultra TR-FRET (ROCK2). The test is classed as biochemical. Conditions: 1 mM of ATP. Here is the method:
(§1) Kinase IC50 was determined through an in vitro assay based on LANCE Ultra TR-FRET (Time-Resolved Fluorescence Resonance Energy Transfer) homogeneous technologies method 5 (Perkin Elmer). Recombinant ROCK1 (amino acids 1-477) and ROCK2 (amino acids 5-554) proteins were purchased from Carna Biosciences and SignalChem. Compound activities were measured by Envision and IC50s were calculated. The assays were performed in white LUMITRAC™ 200 96 well half-area microplates from Greiner Bio-One. The kinase reaction buffer consisted of 50 mM HEPES pH 7.5, 1 mM EGTA, 10 mM MgCl2, 2 mM DTT and 0.01% 10 Tween-20. Kinases were incubated with 50 nM (ULight-CREBtide) substrate in the presence of 1 mM (ROCK1) or 1 mM (ROCK2) of ATP. The kinase reaction was carried out for 1 hour before addition of a stopping buffer to a final of 10 mM EDTA and 0.6 nM of LANCE Ultra Europium anti-phospho-CREB (Ser133) antibody (PerkinElmer TRF0200) in LANCE detection buffer. All assay incubations were performed at room temperature, and the microplates were sealed with polyester film during that time. The reaction was incubated for 1 hour, and the signal was read in Envision in TR-FRET mode (excitation at 320 nm and emission at 615/665 nm).
(§2) As used herein, a way to describe potency of inhibitory activity (nM) is a value of inhibitory activity at 50% (IC50).
(In general: TR-FRET usually uses a lanthanide donor and a delayed reading to cut background.)

The target in test [2] is T2, Recombinant ROCK1 (amino acids 1-477) (Homo sapiens, UniProt Q13464).
T2 construct: Recombinant ROCK1 (amino acids 1-477)
The test can be described thus: ROCK inhibition assay, LANCE Ultra TR-FRET (ROCK1). It is filed as biochemical. To be noted: 1 mM of ATP. Here is the method:
as §1, §2

These results are taken from US20240360139A1, “BLOOD BRAIN BARRIER PENETRATING SELECTIVE INHIBITORS OF ROCK2 PROTEIN KINASES AND USES THEREOF” (GENOSCO Inc., priority 2023, published 2024).

pIC50: −log10 of the molar value.

T1 sequence (O75116 5-554): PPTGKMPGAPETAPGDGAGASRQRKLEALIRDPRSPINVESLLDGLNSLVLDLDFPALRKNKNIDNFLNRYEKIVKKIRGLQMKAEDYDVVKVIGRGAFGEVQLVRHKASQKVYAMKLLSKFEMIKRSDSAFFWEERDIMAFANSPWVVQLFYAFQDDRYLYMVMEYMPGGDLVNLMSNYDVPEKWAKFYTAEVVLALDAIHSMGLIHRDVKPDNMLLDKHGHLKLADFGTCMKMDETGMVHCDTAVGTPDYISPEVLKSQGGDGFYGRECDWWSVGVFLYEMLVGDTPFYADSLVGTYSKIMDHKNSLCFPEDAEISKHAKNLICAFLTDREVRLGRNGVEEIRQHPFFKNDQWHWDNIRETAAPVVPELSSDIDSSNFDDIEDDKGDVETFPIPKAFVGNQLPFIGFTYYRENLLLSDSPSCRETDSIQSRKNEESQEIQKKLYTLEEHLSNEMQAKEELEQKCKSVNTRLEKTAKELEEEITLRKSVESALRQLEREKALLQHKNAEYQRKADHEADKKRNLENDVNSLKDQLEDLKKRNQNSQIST
T2 sequence (Q13464 1-477): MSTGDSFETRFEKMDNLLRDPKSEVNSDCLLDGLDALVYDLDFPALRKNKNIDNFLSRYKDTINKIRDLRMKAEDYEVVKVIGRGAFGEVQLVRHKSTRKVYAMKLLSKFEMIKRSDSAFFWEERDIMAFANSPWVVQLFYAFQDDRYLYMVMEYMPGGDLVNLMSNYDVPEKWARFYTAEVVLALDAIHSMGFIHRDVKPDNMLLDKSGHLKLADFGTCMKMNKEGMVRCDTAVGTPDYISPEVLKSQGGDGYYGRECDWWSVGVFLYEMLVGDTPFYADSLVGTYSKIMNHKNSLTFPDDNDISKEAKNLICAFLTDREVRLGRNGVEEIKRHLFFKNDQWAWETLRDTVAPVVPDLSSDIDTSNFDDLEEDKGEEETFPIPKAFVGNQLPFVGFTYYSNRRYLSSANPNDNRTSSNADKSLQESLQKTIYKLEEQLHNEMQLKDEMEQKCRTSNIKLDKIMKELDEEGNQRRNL

A word on the pIC50: it is −log10 of the IC50, conventionally taken in molar units. For `COc1n[nH]cc1-c1ccc2c(C(=O)C3CCOc4ccc(F)cc4C3)nn(CCN(C)C)c2c1` (stereo not drawn) [Compound 5-62], the pIC50 in test [1] and in test [2] was less than 6.30 throughout.

`CCN(CCn1cc(C(=O)[C@@H]2COc3ccc(OC)cc3C2)c2ccc(-c3c[nH]nc3Cl)cc21)CC(F)(F)F` [Compound 5-14]: the pIC50 in test [1] was 6.70 to 7.68; in test [2], less than 6.30.

Consider `COc1n[nH]cc1-c1ccc2c(C(=O)C3COc4ccc(Cl)cc4O3)nn(CCN(C)C)c2c1` (stereo not drawn) [Compound 5-59], for which the pIC50 was 6.70 to 7.68 in test [1] and less than 6.30 in test [2].

For `COc1[nH]ncc1-c1ccc2c(C(=O)[C@H]3COc4ccc(F)cc4C3)cn(CCN(C)C)c2c1` [Compound 5-40], the figures for the pIC50 in test [1] and in test [2] were 6.30 to 6.70 and less than 6.30, respectively.

As for `COc1ccc2c(c1)CC(C(=O)c1cn(C[C@H]3CCN3C)c3cc(-c4cn[nH]c4Cl)ccc13)CO2` (stereo partly drawn) [Compound 1-50], the negative-log IC50 (pIC50) was greater than 7.70 in test [1] and less than 6.30 in test [2].

For the molecule `COc1ccc2c(c1)CC(C(=O)c1cn(C[C@H]3CCN3)c3cc(-c4cn[nH]c4F)ccc13)CO2` (stereo partly drawn) [Compound 1-38], the pIC50 was greater than 7.70 in test [1] and 6.30 to 6.70 in test [2].

Take `COc1[nH]ncc1-c1cc2c(cn1)c(C(=O)C1COc3ccc(Cl)cc3C1)cn2CCN(C)C` (stereo not drawn) [Compound 1-1, (6-chlorochroman-3-yl)-[1-[2-(dimethylamino)ethyl]-6-(3-methoxy-1H-pyrazol-4-yl)pyrrolo[3,2-c]pyridin-3-yl]methanone]: the pIC50 in test [1] is 6.70 to 7.68; in test [2], less than 6.30.

As for `COc1ccc2c(c1)CC(C(=O)c1cn(CC3(N)CC3)c3cc(-c4cn[nH]c4Cl)ccc13)CO2` (stereo not drawn) [Compound 4-3], the pIC50 in test [1] is greater than 7.70; in test [2], 6.70 to 7.68.

With `CN(C)CCn1cc(C(=O)C2COc3ccc(Cl)cc3C2)c2cnc(-c3cn[nH]c3Cl)nc21` (stereo not drawn) [Compound 1-33], the pIC50 in test [1] and in test [2] was less than 6.30 throughout.

Turning to `CN(C)CCn1nc(C(=O)C2COc3ccccc3O2)c2ccc(-c3cn[nH]c3)cc21` (stereo not drawn) [Compound 5-43], the negative logarithm of the IC50 (pIC50) in test [1] is 6.70 to 7.68; in test [2] it was less than 6.30.

Consider `CN(C)CCn1nc(C(=O)C2COc3ccc(Cl)cc3C2)c2ccc(-c3c[nH]nc3F)cc21` (stereo not drawn) [Compound 5-48], for which the pIC50 in test [1] was greater than 7.70; in test [2] it was less than 6.30.

On to `CC(N)Cn1cc(C(=O)C2COc3ccc(F)cc3C2)c2cnc(-c3c[nH]nc3Cl)cc21` (stereo not drawn) [Compound 2-2], for which the values for the pIC50 in test [1] and in test [2] were greater than 7.70 and 6.70 to 7.68, respectively.

Consider `O=C(c1cn(CC2CCN2)c2cc(-c3cn[nH]c3Cl)ccc12)C1COc2ccc(Cl)cc2C1` (stereo not drawn) [Compound 1-31], for which the pIC50 in test [1] is 6.70 to 7.68; in test [2] it was less than 6.30.

Consider `COc1n[nH]cc1-c1ccc2c(C(=O)[C@@H]3COc4ccc(Cl)cc4C3)cn(CCCN(C)C)c2c1` [Compound 3-7], for which the pIC50 was 6.70 to 7.68 in test [1] and 6.30 to 6.70 in test [2].

`COc1ccc2c(c1)CC(C(=O)c1cn(CC3(N)CC3)c3cc(-c4cn[nH]c4F)ccc13)CO2` (stereo not drawn) [Compound 4-6]: the pIC50 was greater than 7.70 in test [1] and 6.70 to 7.68 in test [2].

As to `C[C@H](N)Cn1cc(C(=O)C2COc3ccc(Cl)cc3C2)c2ccc(-c3c[nH]nc3Cl)cc21` (stereo partly drawn) [Compound 2-7], the negative logarithm of the IC50 (pIC50) in test [1] and in test [2] was greater than 7.70 throughout.

For `COc1n[nH]cc1-c1ccc2c(C(=O)C3COc4ccc(Cl)cc4C3)cn(CCN3CCC3)c2c1` (stereo not drawn) [Compound 3-4, [1-[2-(azetidin-1-yl)ethyl]-6-(3-methoxy-1H-pyrazol-4-yl)indol-3-yl]-(6-chlorochroman-3-yl)methanone], the pIC50 in test [1] was 6.30 to 6.70; in test [2], less than 6.30.

`CCN(C)CCn1cc(C(=O)C2COc3ccc(Cl)cc3C2)c2ccc(-c3cn[nH]c3OC)cc21` (stereo not drawn) [Compound 3-11]: the pIC50 in test [1] was 6.70 to 7.68; in test [2] it was less than 6.30.

Regarding `CN1CCCC1Cn1cc(C(=O)C2COc3ccc(Cl)cc3C2)c2ccc(-c3cn[nH]c3F)cc21` (stereo not drawn) [Compound 1-27], the negative logarithm of the IC50 (pIC50) in test [1] and in test [2] was 6.30 to 6.70 each time.

As for `CN(C)CCn1cc(C(=O)C2COc3ccc(Cl)cc3O2)c2ccc(-c3c[nH]nc3Cl)cc21` (stereo not drawn) [Compound 5-17], the pIC50 in test [1] and in test [2] was less than 6.30 in each case.

With `COc1ccc2c(c1)C[C@H](C(=O)c1cn(CCN(CCF)CCF)c3cc(-c4c[nH]nc4Cl)ccc13)CO2` [Compound 5-15], the pIC50 in test [1] is 6.70 to 7.68; in test [2], less than 6.30.

As to `CN(C)CCn1cc(C(=O)C2COc3ccc(F)cc3C2)c2ccc(-c3c[nH]nc3Cl)cc21` (stereo not drawn) [Compound 5-19], the pIC50 is 6.70 to 7.68 in test [1] and less than 6.30 in test [2].

As for `CNCCn1cc(C(=O)C2COc3ccc(F)cc3C2)c2cnc(-c3c[nH]nc3Cl)cc21` (stereo not drawn) [Compound 3-2], the pIC50 in test [1] was 6.70 to 7.68; in test [2] it was less than 6.30.

On to `COc1[nH]ncc1-c1ccc2c(C(=O)C3COc4ccc(F)cc4C3)cn(CCN(C)C)c2c1` (stereo not drawn) [Compound 5-37], for which the pIC50 is greater than 7.70 in test [1] and less than 6.30 in test [2].

Regarding `NC1(Cn2cc(C(=O)C3COc4ccc(Cl)cc4C3)c3ccc(-c4cn[nH]c4Cl)cc32)CC1` (stereo not drawn) [Compound 4-2], the negative-log IC50 (pIC50) in test [1] and in test [2] was greater than 7.70 in each case.

For `COc1ccc2c(c1)CC(C(=O)c1cn(C[C@H]3CCN3)c3cc(-c4cn[nH]c4Cl)ccc13)CO2` (stereo partly drawn) [Compound 1-35], the pIC50 in test [1] is greater than 7.70; in test [2] it was 6.70 to 7.68.

`O=C(c1cn(CC2CNC2)c2cc(-c3cn[nH]c3Cl)ccc12)C1COc2ccc(Cl)cc2C1` (stereo not drawn) [Compound 1-21]: the pIC50 in test [1] and in test [2] was greater than 7.70 throughout.

Regarding `CNCCn1cc(C(=O)C2COc3ccc(F)cc3C2)c2ccc(-c3c[nH]nc3Cl)nc21` (stereo not drawn) [Compound 3-3], the pIC50 in test [1] was 6.70 to 7.68; in test [2], less than 6.30.

On to `COc1ccc2c(c1)CC(C(=O)c1cn(C[C@H]3CCN3)c3cc(-c4cn[nH]c4OC)ccc13)CO2` (stereo partly drawn) [Compound 1-42], for which the pIC50 is greater than 7.70 in test [1] and 6.30 to 6.70 in test [2].

`COc1ccc2c(c1)C[C@@H](C(=O)c1cn(CCN(C)C)c3cc(-c4c[nH]nc4Cl)ccc13)CO2` [Compound 5-8]: the pIC50 in test [1] was greater than 7.70; in test [2] it was less than 6.30.

With `CN(C)CCn1cc(C(=O)C2COc3ccc(F)cc3C2)c2ccc(-c3c[nH]nc3Cl)nc21` (stereo not drawn) [Compound 1-10], the pIC50 in test [1] is 6.70 to 7.68; in test [2], less than 6.30.

On to `CN(C)CCn1cc(C(=O)C2COc3ccc(Cl)cc3C2)c2ccc(-c3cn[nH]c3F)cc21` (stereo not drawn) [Compound 1-24], for which the pIC50 is 6.70 to 7.68 in test [1] and less than 6.30 in test [2].

`COc1ccc2c(c1)C[C@H](C(=O)c1cn(C[C@H]3CCN3CC(F)F)c3cc(-c4c[nH]nc4Cl)ccc13)CO2` [Compound 5-10]: the pIC50 in test [1] was greater than 7.70; in test [2], 6.30 to 6.70.

For `CN(C)CCn1cc(C(=O)C2COc3ccc(Cl)cc3C2)c2ccc(-c3ccnn3C)cc21` (stereo not drawn) [Compound 5-24], the pIC50 in test [1] and in test [2] was less than 6.30 throughout.

As for `COc1ccc2c(c1)CC(C(=O)c1cn(CCN(C)C)c3cc(-c4cn[nH]c4OC)ccc13)CO2` (stereo not drawn) [Compound 5-41], the negative-log IC50 (pIC50) in test [1] was 6.70 to 7.68; in test [2], 6.30 to 6.70.

With `CN(C)CCn1nc(C(=O)C2COc3ccc(Cl)cc3O2)c2ccc(-c3c[nH]nc3Cl)cc21` (stereo not drawn) [Compound 5-61], the values for the pIC50 in test [1] and in test [2] were 6.70 to 7.68 and less than 6.30, respectively.
